Here are results for seven compounds from patent publication US11497206B2, “Cell cryopreservation protective composition and use thereof” (Tianjin University, priority 2016, dated 2022).

In series [1] the test system is sheep blood cells. Put plainly: Recovery survival rate of blood cells after cryopreservation in liquid nitrogen, hemolysis by microplate reader. The series is classed as cell-based. The protocol:
(§1) (1) The respective cell cryopreservation protective solutions (consisting merely of PBS and the effective ingredients for cryopreservation) were prepared according to the following Table 9; (2) about 1×10^7 sheep blood cells or 20 μL rabbit blood was taken and added into about 1.5 mL to 1.8 mL of the cell cryopreservation protective solutions, and the suspensions were put into suitable freezing tubes and directly placed in liquid nitrogen for cryopreservation; (3) after cryopreservation, the cells were thawed and recovered at 37° C.; the survival rates were investigated by using a microplate reader (trademark: TECAN, model: […] 200 PRO) to determine the hemolysis in each sample, and the method for determining hemolysis is as follows: The recovered samples, a sample of PBS and a sample of water were placed in a centrifuge for centrifugation (2000 r/min, 10 min), and thereafter the supernatants were taken; the light transmittance thereof was measured using the microplate reader and the survival rates of the blood cells were calculated.

In series [2] the test system is sheep blood cells. Description: Influence of washing operation on survival rate of blood cells after 24 h immersion. The note with it: sheep blood cells immersed 24 h at 37° C., diluted 2 folds with PBS, washed by centrifugation (FIG. 11).
The subject of the next series is rabbit blood. Put plainly: Recovery survival rate of blood after cryopreservation in liquid nitrogen, hemolysis by microplate reader. The series is classed as cell-based. Here is the method:
as §1

Setting [3] is: effective ingredient 1 mass % in PBS.
The mark [4] stands for this setting: effective ingredient 2 mass % in PBS.
Where [5] appears, read: effective ingredient 3 mass % in PBS.
The mark [6] stands for this setting: effective ingredient 4 mass % in PBS.
[7] abbreviates: effective ingredient 5 mass % in PBS.
Setting [8] is: effective ingredient 6 mass % in PBS.
Setting [9] is: effective ingredient 40 mass % in PBS.

Each structure is given as a SMILES string. Counter-ions that a name gives are not always drawn.

Consider `C[N+](C)(C)CC(=O)[O-]` [Betaine, trimethylammonium acetate], for which the “Recovery cell survival rate” value is 25.4% with sheep blood cells [1] (setting [3]); 44.6% with sheep blood cells [1] (setting [4]); 49.3% with sheep blood cells [1] (setting [5]); 64.8% with sheep blood cells [1] (setting [6]); 70.6% in the series with sheep blood cells [1] (setting [7]); 88.1% in the series with sheep blood cells [1] (setting [8]). Moreover, the “Recovery cell survival rate” value with rabbit blood (setting [6]) came to 55.2%; in the series on rabbit blood (setting [7]), 75.1%; in the series on rabbit blood (setting [8]), 85.4%; in the series with rabbit blood (effective ingredient 15 mass % in PBS) it was 89.0%. The “Survival rates of blood cells before and after washing” value in the series with sheep blood cells [2] was “not affected”.
For `C=CC(=O)NCCC[N+](C)(C)CCC(=O)[O-]` [Carboxybetaine (meth)acrylamide, (3-acryloylaminopropyl)-(2-carboxyethyl)-dimethylammonium], the figures for the “Recovery cell survival rate” value in the series with sheep blood cells [1] (setting [6]) and with rabbit blood (setting [8]) were 71.3% and 65.1%, respectively.
For `C[S+](C)[O-]` [DMSO, Dimethyl sulfoxide], the “Recovery cell survival rate” value is reported as 8.9% in the series on sheep blood cells [1] (setting [3]); 24.4% in the series with sheep blood cells [1] (setting [4]); 32.4% in the series with sheep blood cells [1] (setting [5]); 44.4% with sheep blood cells [1] (setting [6]); 57.0% in the series with sheep blood cells [1] (setting [7]); 40.8% in the series on sheep blood cells [1] (setting [8]).
`OCC(O)CO` [Glycerol]: the “Recovery cell survival rate” value was found to be 21.7% with sheep blood cells [1] (setting [3]); 36.5% in the series on sheep blood cells [1] (setting [4]); 43.5% in the series with sheep blood cells [1] (setting [5]); 31.8% in the series with sheep blood cells [1] (setting [6]); 8.8% with sheep blood cells [1] (setting [7]); 14.4% in the series on sheep blood cells [1] (setting [8]). Moreover, the “Recovery cell survival rate” value in the series with sheep blood cells [1] (effective ingredient 10 mass % in PBS) was found to be 35.8%; in the series on sheep blood cells [1] (setting [9]), 48.0%; with rabbit blood (setting [9]), 32.6%.
For `C[N+](C)(C)C[C@H](O)CC(=O)[O-]` [L-carnitine, 3-carboxy-2-hydroxy-N,N,N-trimethyl-1-propanaminium inner salt (2R)], the “Recovery cell survival rate” value is reported as 84.0% with sheep blood cells [1] (setting [8]) and 84.3% in the series with rabbit blood (setting [8]).
For `C=C(C)C(=O)OCCOP(=O)([O-])OCC[N+](C)(C)C` [Phosphorylcholine derivative, 2-(methacryloyloxy)ethyl-2-(trimethylammonio)ethyl phosphate], the entries for the “Recovery cell survival rate” value in the series with sheep blood cells [1] (setting [6]) and in the series on rabbit blood (setting [8]) were 80.9% and 73.9%, respectively.
The like results for `C=C(C)C(=O)OCC[N+](C)(C)CCCS(=O)(=O)[O-]` [Sulfobetaine, 3-[dimethyl-[2-(2-methylprop-2-enoyloxy)ethyl]azaniumyl]propane-1-sulfonate] were, in that order, 75.6% and 73.6%.
